pIC50: −log10 of the molar value. “And” between values parts separate entries of the source, which are not always exact repeats. Equal entries are not always repeated. “Also recorded” adds a separate entry of the source.
Assays:
[1] = system: murine-grafted tumors, including P388 and L1210 leukemias, and solid tumors; design: method as in PMID 1783523, PMID 15133248; details: cited from earlier work
[2] = system: several tumor cell lines; design: method as in PMID 1783523, PMID 15133248; details: cited from earlier work
[3] = system: calcium entry in PC12 cells; design: method as in PMID 15777959; details: cited from earlier work
[4] = system: mouse ES cells; design: method as in PMID 2998604; details: by inhibiting matrix metalloproteinase 2; cited from earlier work
[5] = system: epidermal growth factor-stimulated DNA synthesis in squamous cell tumors; details: cited from earlier work
[6] = system: A-431 cells; design: method as in PMID 9748366, PMID 12939464; details: cited from earlier work
[7] = system: GH4C1 rat pituitary and N2A mouse neuroblastoma cell lines; design: method as in PMID 18493660; details: compared with parent molecule bromoageliferin; cited from earlier work
[8] = system: HaCaT keratinocyte cells; design: method as in PMID 22292413; details: cited from earlier work
[9] = system: Caenorhabditis elegans; design: method as in PMID 22292413; details: cited from earlier work
[10] = system: osteoblasts (OB); assay: Calcium assay for osteogenic differentiation potential; assay type: cell-based, human; details: 12.5 µM, 3 weeks (Figure 6) or 5 weeks (methods) of exposure
Procedure: (§1) MSC and OB were cultured in osteogenic medium for 3 and 5 weeks, respectively. The experimental groups included a positive solvent control (osteogenic medium with 0.5% DMSO background), a negative control (medium without osteogenic supplements) and treated samples (osteogenic medium, 0.5% DMSO background and 12.5 µM of test compound). Cell cultures were extracted by 5% trichloroacetic acid (500 μL per sample). O-Cresolphtalein complex was added (Calcium CPC LiquiColor Test®; Stanbio Laboratory, Boerne, TX, USA), and the calcium content was determined spectrophotometrically at 550 nm.
(§2) To determine the DNA content, cells were washed with PBS, and 200 μL of digestion buffer (10 mM Tris, 1 mM EDTA, 0.1% Triton X-100, 0.1 mg/mL proteinase K) was added. Samples were incubated in digestion buffer overnight at 56 °C. The supernatants were drawn off and PicoGreen® dye (Molecular Probes, Eugene, OR, USA) was added to the samples in 1:1 ratio and read in a fluorescent plate reader (excitation 485 nm and emission 528 nm). DNA values were used to normalize the calcium content. Four wells per condition were examined, and two samples from each well were taken for each assay.

[11] = system: mesenchymal stem cells (MSC); assay: as above; assay type: cell-based, human; details: 12.5 µM, 5 weeks (Figure 6) or 3 weeks (methods) of exposure
Procedure: as §1, §2

[12] = system: human T-lymphocyte (CEM); assay: Cytostatic activity against tumor cell lines (cell number by Coulter counter); assay type: cell-based; details: 72 h, concentration inhibiting cell proliferation by 50%, three days incubation, mean of three repeats
Procedure: (§3) The IC50 was defined as the compound concentration required to inhibit cell proliferation by 50%. The therapeutic index (TI) was calculated as the ratio of the compound concentration producing toxicity (IC50) to the concentration needed to exert the desired ‘therapeutic’ effect on biofilms of Salmonella and Pseudomonas, indicated by the BIC50 (dose needed to prevent biofilm formation by 50%). The higher the therapeutic index, the broader the safety window of the compound.
(§4) Murine leukemia (L1210), human T-lymphocyte (CEM) and human cervix carcinoma (HeLa) were suspended at 300,000–500,000 cells/mL of culture medium, and 100 µL of a cell suspension was added to 100 µL of an appropriate dilution of the test compounds in 200 µL-wells of 96-well microtiter plates. After incubation at 37 °C for two (L1210), three (CEM) or four (HeLa) days, the cell number was determined using a Coulter counter. The IC50 was defined as the compound concentration required to inhibit cell proliferation by 50%.

[13] = system: human cervix carcinoma (HeLa); assay: as above; assay type: cell-based; details: 96 h, concentration inhibiting cell proliferation by 50%, four days incubation, mean of three repeats
Procedure: as §3, §4

[14] = system: murine leukemia (L1210); assay: as above; assay type: cell-based; details: Mus musculus, L1210, 48 h; concentration inhibiting cell proliferation by 50%; two days incubation; mean of three repeats
Procedure: as §3, §4

[15] = system: human bone marrow-derived mesenchymal stem cells (MSC); assay: Cytotoxicity against bone cells, trypan blue staining; assay type: cell-based; details: for effect on proliferation and viability: 12.5 µM, after 48h and after 6 days of exposure, trypan blue
Procedure: (§5) The cytotoxicity of the compounds was measured on cell cultures of two cell types represented in bone tissue, namely human osteoblasts (OB) and human bone marrow-derived mesenchymal stem cells (MSC). These tests were conducted according to ISO 10993-5 cytotoxicity standard. The cells were seeded in a 96-well plate at a density of 5000 cells/cm^2 in cell culture media (Advanced DMEM, 10% FBS, 1× GlutaMAX, 0.05 mg/mL gentamicin) and allowed to attach overnight. […]
(§6) Trypan blue staining: the medium was removed from the wells, and 1/3 trypan blue in DMEM medium was added to the cells, incubated for 3 min, after which trypan blue was removed and DMEM medium was added to the wells. In each of four wells, two microscopy fields were counted for viable (transparent) and dead (blue) cells.

[16] = system: human osteoblasts (OB); assay: as above; assay type: cell-based; details: for effect on proliferation and viability: 12.5 µM, after 48h and after 6 days of exposure, trypan blue
Procedure: as §5, §6

[17] = system: S. Typhimurium biofilm; details: concentration preventing biofilm formation (at 25 °C) by 50%; as previously reported ref 13, 14, 15, 16; read-out: BIC50 S. Typhimurium; cited from earlier work
[18] = system: human bone marrow-derived mesenchymal stem cells (MSC); assay: Metabolic activity of bone cells, MTT staining; assay type: cell-based; details: 12.5 µM, 6 days exposure, MTT staining (results not shown)
Procedure: (§7) The cytotoxicity of the compounds was measured on cell cultures of two cell types represented in bone tissue, namely human osteoblasts (OB) and human bone marrow-derived mesenchymal stem cells (MSC). These tests were conducted according to ISO 10993-5 cytotoxicity standard. The cells were seeded in a 96-well plate at a density of 5000 cells/cm^2 in cell culture media (Advanced DMEM, 10% FBS, 1× GlutaMAX, 0.05 mg/mL gentamicin) and allowed to attach overnight. The next day the test compounds (12.5 μM) and controls were added to the cells (negative controls were cell culture medium and cell culture medium with 0.5% DMSO background, positive control was 0.05% phenol to show a cytotoxic effect) and incubated for 2h, 48h and 6 days and at each time-point the numbers of viable and dead cells were determined by trypan blue staining, and the metabolic activity was determined with MTT staining.
(§8) MTT: the medium was removed from the wells and 100 μL of medium, supplemented with 10% serum and 0.5 mg/mL MTT was added to the cells. The cells were incubated overnight at 37 °C and 5% CO2. The next day the medium with MTT was removed and 100 μL acidic isopropanol was added. The cells were then centrifuged at 2300 g and 50 μL of the supernatant was transferred to a new 96-well plate. The absorbance was measured at 570 nm and the background was measured at 660 nm. Four wells per condition were examined.

[19] = system: human osteoblasts (OB); assay: Metabolic activity of bone cells, MTT staining; assay type: cell-based; details: 12.5 µM, 6 days exposure, MTT staining (results not shown)
Procedure: as §7, §8

[20] = system: C. elegans; assay type: in vivo, Caenorhabditis elegans; details: for C. elegans % survival at 25 µM: after 7 days relative to viability at day 0, mean of at least two repeats; for effect on C. elegans survival at 100 µM / effect on C. elegans survival at 200 µM: 7 days of exposure
Procedure: Eggs of a double mutant (glp-4Dsek-1D) of C. elegans were grown on NGM/OP50 agar plates (NGM agar plates on the surface inoculated with 100 µL of an overnight culture of OP50 Escherichia coli and stored at 4 °C until use) at 25 °C until all nematodes had reached the L4 stage. Worms were collected and washed with M9 buffer (3 g/L KH2PO4, 6 g/L Na2HPO4, 5 g/L NaCl, 1 mM MgSO4). For toxicity testing, 40 to 50 worms were suspended in 250 μL M9 (supplemented with 10 µg/mL cholesterol, 75 µg/mL ampicillin and 100 µg/mL kanamycin) buffer in each well of 24-well microtiter plates, in the presence or absence (0.5% DMSO control) of 25, 100 or 200 µM of the test compounds and grown for 7 days at 25 °C. The percentage survival of the worms in the presence or absence of anti-biofilm compounds was calculated after 7 days relative to their viability at day 0.

[21] = system: P. aeruginosa biofilm; details: concentration preventing biofilm formation (at 25 °C) by 50%; as previously reported ref 13, 14, 15, 16; read-out: BIC50 P. aeruginosa; cited from earlier work

NC[C@H](Cl)[C@@H](O)c1c[nH]c(N)n1 [2a, girolline]
cytotoxicity in vivo against murine-grafted tumors [1]: significant cytotoxicity
cytotoxicity in vitro against several tumor cell lines [2]: significant cytotoxicity

Nc1nc([C@@H]2c3[nH]c(N)nc3C[C@H](CNC(=O)c3cc(Br)c[nH]3)[C@H]2CNC(=O)c2cc(Br)c(Br)[nH]2)c[nH]1 [2b, bromoageliferin]
calcium entry in PC12 cells [3]: inhibit the calcium entry

Nc1nc2c(-c3cc(Br)c(Br)[nH]3)nccc2[nH]1 [2d, ageladine A]
angiogenesis in a model using mouse ES cells [4]: reduce angiogenesis

COc1ccc(Cc2nc(NC3=NC(=O)N(C)C3=O)n(C)c2Cc2ccc(O)cc2)cc1 [2j, naamidine A]
inhibition of epidermal growth factor-stimulated DNA synthesis ([5]; squamous cell tumors): potently inhibit
cell cycle arrest of A-431 cells [6]: arrest in the G1 phase

COc1ccc(Cc2[nH]c(=N)n(C)c2Cc2ccc(O)cc2)cc1 [2m, naamine A]
ability to inhibit EGFR stimulated DNA synthesis ([5]; compared with naamidine A): markedly decreased ability to inhibit

NC[C@H]1Cc2nc(N)[nH]c2C[C@@H]1CN [2n]
cytotoxicity in GH4C1 rat pituitary and N2A mouse neuroblastoma cell lines [7]: lack the cytotoxicity

NC[C@@H]1Cc2[nH]c(N)nc2C[C@@H]1CN [2o]
cytotoxicity in GH4C1 rat pituitary and N2A mouse neuroblastoma cell lines [7]: lack the cytotoxicity

Cn1c(C(=O)NCCCc2c[nH]c(N)n2)cc(Br)c1Br [2p]
effect on HaCaT keratinocyte cells [8]: differential effect
toxicity against Caenorhabditis elegans [9]: lack toxicity

CCCCCCCCCCCCCNC(=O)CCCc1c[nH]c(N)n1 [2q]
effect on HaCaT keratinocyte cells [8]: differential effect
toxicity against Caenorhabditis elegans [9]: lack toxicity

C/C(=C\c1ccccc1)Cn1cc(CCCCCc2c[nH]c(N)n2)nn1 [2r]
effect on HaCaT keratinocyte cells [8]: differential effect
toxicity against Caenorhabditis elegans [9]: lack toxicity

CCCCNc1ncc(-c2ccc(Br)cc2)[nH]1 [compound 25]
calcium deposition compared to the solvent control (osteogenic differentiation potential) [10]: none of the compounds does negatively affect
calcium deposition compared to the solvent control (osteogenic differentiation potential) [11]: none of the compounds does negatively affect; also recorded: significantly induces
pIC50 [12]: 3.31
pIC50 [13]: 4.29
pIC50 [14]: 3.90
effect on proliferation and viability [15]: do not or only slightly reduce
survival of cells after 4 weeks of exposure [15]: allow survival
effect on proliferation and viability [16]: do not or only slightly reduce
survival of cells after 4 weeks of exposure [16]: allow survival
pIC50 [17]: 5.15
effect on metabolic activity [18]: slightly enhance
effect on metabolic activity [19]: slightly enhance
C. elegans % survival at 25 µM [20]: 102.4%
effect on C. elegans survival at 100 µM [20]: none of the compounds significantly affect
effect on C. elegans survival at 200 µM [20]: do not significantly affect survival
pIC50 [21]: 5.01

Brc1ccc(-c2cnc(NCCCn3cc(C4CC4)nn3)[nH]2)cc1 [compound 40]
calcium deposition compared to the solvent control (osteogenic differentiation potential) [10]: none of the compounds does negatively affect
calcium deposition compared to the solvent control (osteogenic differentiation potential) [11]: none of the compounds does negatively affect
pIC50 [12]: 4.47
pIC50 [13]: 4.17
pIC50 [14]: 4.36
effect on proliferation and viability [15]: do not or only slightly reduce
survival of cells after 4 weeks of exposure [15]: allow survival
effect on proliferation and viability [16]: do not or only slightly reduce
survival of cells after 4 weeks of exposure [16]: allow survival
pIC50 [17]: 5.70
effect on metabolic activity [18]: slightly enhance
effect on metabolic activity [19]: slightly enhance
C. elegans % survival at 25 µM [20]: 82.6%
effect on C. elegans survival at 100 µM [20]: none of the compounds significantly affect
effect on C. elegans survival at 200 µM [20]: do not significantly affect survival
pIC50 [21]: 4.14 and 4.15

dibromoageliferin [2c]
calcium entry in PC12 cells [3]: inhibit the calcium entry

Source: publication PMC6271933, “Evaluation of the Toxicity of 5-Aryl-2-Aminoimidazole-Based Biofilm Inhibitors against Eukaryotic Cell Lines, Bone Cells and the Nematode Caenorhabditis elegans” (Molecules, 2014)
